What was measured:
[1] = system: C. elegans strain AM141; experiment: Q40::YFP aggregate fluorescence per worm; assay type: in vivo; settings: 5 days post-hatch
Text: C. elegans strains: Nematode strains used in this study were all obtained from the Caenorhabditis Genetics Center (CGC; Minneapolis, MN). Nematode models of Alzheimer's disease-like arnyloidosis were CL4176 [smg-1^ts; myo-3p::Aβ1-42::let-851 3′-UTR; rol-6(sul006)] expressing human Aβ1-42 in muscle; and CL2355 [smg-l^ts; snb-1::Aβ1-42::3′UTR(long); mtl-2::gfp] expressing human Aβ1-42 in all neurons. Strain AM141 expresses a polyglutamine reporter (Q40::YFP) in muscle, and thus serves as a model of glutamine-tract aggregation similar to that observed in Huntington disease and several other neuropathologies (Morley et al., 2002). All strains were propagated at 20° C. on2% (w/v) agar plates containing nematode growth medium (NGM), overlaid with E col strain OP50 unless otherwise noted.
(§1) RNAi in C.elegans. RNA-mediated interference (RNAi) is achieved by feeding bacteria that express double-stranded RNA corresponding to an exonic fragment of the mRNA target (Ayyadevara et al., 2016c; Fire et al., 1991; Fire et al., 1998; Kakraba et al., 2019). Briefly, worm cultures were synchronized by alkaline hypochlorite lysis to release unlaid eggs. […] Worms on adult day 3 (5.5 days post-hatch) were imaged to assess total aggregate fluorescence (strain AM141), or were assessed for paralysis (VH255) or chemotaxis toward n-butanol (CL2355).

[2] = system: C. elegans strain CL2355; experiment: Chemotaxis to n-butanol in Aβ1-42 expressing C. elegans; assay type: in vivo; settings: 0.1 μM
Experimental: Chemotaxis and paralysis assay)s in Aβ-tragsgenic C elegans strains CL2355 and CL4176. Transgenic C. elegans strains, expressing Aβ1-42 in neurons (C2355) or in muscle (CL4176), were grown at 20° C. with ample 1. coli (OP50) bacteria, and on day 1 of adult life worms were lysed to release eggs and thus generate a synchronized cohort. Eggs were then placed on I00-mm NGM-agar Petri dishes seeded with RNAi-expressing bacteria (E coil H-T1′15) targeting a GFAP orthologue, or empty-vector control bacteria. Worms at the L3-L4 transition were upshifted to 25.5° C. to induce human Aβ1-42 transgene expression and assayed after 48 hours. Chemotaxis (Dosanjh et al., 2010) and paralysis (Dostal and Link, 2010) assays were performed as described previously (Ayyadevara et al., 2017; Ayyadevara et al., 2016b; Ayyadevara et al., 2016d; Kakraba et al., 2019).
as §1

[3] = system: SH-SY5Y-APPSw cells; experiment: Total sarkosyl-insoluble aggregate protein, SYPRO Ruby stained gels; assay type: cell-based, human; settings: for suppression of aggregate protein: cells treated 48 h, sarkosyl-insoluble fraction
Experimental: MSR1 treatment of SH-SY5Y-APPSw, cells. Human neuroblastoma (SH-SY5Y-APPSw) cells were grown as previously described (Kakraba et al., 2)19, Liu et al., 2005). SH-SY5Y-APPSw cells, expressing an aggregation-prone “Swedish” double mutant of amyloid precursor protein (APPSw), were grown in DMEM plus 10% (v/v) FBS at 37° C. Cells were suspended in trypsin/EDTA and rinsed in buffer prior to replating or harvesting. Immediately preceding assay, cells were grown 48 hr in the presence of 10-μM MSR1 dissolved in DMSO (0.02% final concentration), or 0.02% DMSO (solvent alone) for control cells. Cells were harvested, total protein was isolated, and aggregate proteins were purified as described below.
Isolation of aggregate proteins. Cultured human cells were collected, flash frozen in liquid nitrogen, and homogenized at 0° C. in the presence of buffer containing nonionic detergent (1% v/v NP40, 20-mM Hepes pH 7.4, 300-mM NaCl, 2-mM MgCl2, and protease/phosphatase inhibitors [CalBiochem]). Lysates were centrifuged (5 min, 3000 rpm at 4° C.) to remove debris. After removal of cytosolic proteins (soluble in 1% NP40 nonionic detergent) by centrifugation (18 min, 13,000×g at 4° C.), protein pellets were brought to pH 7.4 with 0.1-M HEPES buffer containing 1% v/v sarkosyl(sodium lauryl sarcosinate) and 5-mM EDTA, and centrifuged 30 min at 100,000×g. Pellet proteins (the sarkosyl-insoluble fraction) were resuspended in Laemmli loading buffer (containing 50-mM dithiothreitol and 2% v/v SDS, sodium dodecyl sulfate), heated 5 min at 95° C. to dissolve proteins soluble in this buffer, and separated by electrophoresis on 4-20% polyacrylamide gradient gels containing 1% v/v SDS. Gels were stained with SYPRO Ruby (ThermoFisher) or Coomassie Blue to visualize protein. Gel lanes were robotically cut into 1-mm slices, and digested thoroughly with trypsin. Proteins in each slice were identified by mass spectrometry as described previously (Ayyadevara et al., 2015; Ayyadevara et al., 2016a; Ayyadevara et al., 2016b; Ayyadevara et al., 2016c; Ayyadevara et al., 2016d; Balasubramaniam et al., 2018).

[4] = system: C. elegans strain VH255; experiment: Paralysis assay in human tau-expressing C. elegans; assay type: in vivo; settings: 1-μM; compared with siRNA against ifp-1
Experimental: Paralysis assays in human tau-expressing C. elegans strain VH255. Transgenic C. elegans strain VH255, with pan-neuronal expression of human tau (Brandt et al., 2009), are maintained at 25° C. on agar plates overlaid with a lawn of E. coli (OP50) bacteria. Worms are lysed in alkaline hypochlorite solution to obtain unlaid eggs used to generate a synchronized culture. The eggs were then transferred to 100-mm NGM-agar plates, to which MSR1 or MSR2 had been added to a final concentration of 1 μM. For ifp-1 RNAi knockdown, the bacterial lawn consisted of strain HT115 expressing an exonic segment of double-stranded ifp-I RNA (see next section). The worms were washed and added to fresh, drug-equilibrated plates every two days. Assays were performed on day-3 adults to assess the fraction of paralyzed worms.

[5] = system: neuroblastoma cells; experiment: Initial testing for cytotoxicity in neuroblastoma cells; assay type: cell-based, human; settings: data not shown
[6] = system: C. elegans; experiment: Effect on C. elegans development; assay type: in vivo; settings: all doses tested, data not shown

SMILES	reduction of aggregate intensity per worm ([1]; 10 μM)	reduction of aggregate intensity per worm ([1]; 0.1-μM)	chemotaxis restored to [2]	suppression of aggregate protein [3]	suppression of protein aggregation ([3]; summary statement: a variety of model systems)	paralysis caused by tau aggregation [4]	cytotoxicity [5]	C. elegans development [6]
O=C(NC[C@H]1CC[C@H](CO)CC1)c1ccc(N2CCCC2)c(Cl)c1 [MSR1, 3-chloro-N-{[trans-4-(hydroxymethyl)cyclo-hexyl]methyl}-4-pyrrolidin-1-ylbenzamide]	~50%	35%	~90%	60-75%	60-75%	alleviated to a similar extent		
O=C(c1cc2c([nH]c1=O)CCCC2)N1CCN(c2ccc(Cl)cn2)CC1 [MSR2, 3-{[4-(5-chloro-2-pyridinyl)-1-piperazinyl]carbonyl}-5,6,7,8-tetrahydro-2(1H)-quinolinone]				did not significantly reduce				
O=C(c1ccc(N2CCCC2)c(Cl)c1)N1CCN(c2ccccn2)CC1 [MSR3, 1-(3-chloro-4-pyrrolidin-1-ylbenzoyl)-4-pyridin-2-ylpiperazine]							cytotoxic	delay C. elegans development

Source: patent US20250041270A1, “SMALL MOLECULE DRUGS THAT REDUCE PROTEIN AGGREGATION” (BIOVENTURES, LLC, priority 2021, published 2025)
